Assay: Human HepG2 cell viability assay in 384 well format
Format: toxicity, cell-based
Design: dose 125 nL, time 70.5 hour; cytotoxicity at 70.5 h: concentration not given beside the values
Details: HepG2 cells, read-out: Inhibition

| SMILES | cytotoxicity at 70.5 h [%] |
| --- | --- |
| COCCNC(=O)[C@H]1C[C@@H]2CCN(Cc3ccoc3)C[C@H]2O1 | -15.5 |
| CN(C)C(=O)CC1CC2(CCNCC2)c2cc(F)ccc21 (centres undefined) | -8.47 |
| COCC(=O)N1CCO[C@H]2[C@H](OC)CC[C@@H]21 | -16.2 |
| Cn1cnc(-c2cc(C(=O)N3CCOCC3)c3ccccn23)c1 | -31.4 |
| O=C(C1=CCCC1)N1C[C@@H]2COC[C@]2(COc2cccnc2)C1 | -5.78 |
| Cc1ccc(C(=O)N2C[C@@H]3COC[C@]3(COc3cccnc3)C2)cn1 | 12.6 |
| CC(=O)N1CCO[C@@H]2CN(C(=O)c3cc(C)oc3C)CC[C@@H]2C1 | 13 |
| COc1ccc(CN2CCn3c(CNS(C)(=O)=O)nnc3C2)cc1 | 24.4 |
| Cn1cc(CN2CC[C@H](O)[C@@H]2Cc2ccncc2)cn1 | 26 |
| Cc1cc(C(=O)N2CC[C@@H]3CN(S(C)(=O)=O)CCO[C@@H]3C2)c(C)o1 | -5.13 |
| O=S(=O)(c1ccccc1)N1CCC2(CCCN2CC2CCCC2)C1 (centres undefined) | -5.67 |
| Cn1ncc2c1C(COCC1CC1)CN(Cc1ccc(F)cc1)C2 (centres undefined) | 25.3 |
| c1cc(COC[C@@H]2CCC[C@@]23CNCCO3)ccn1 | 8.32 |
| CCC1=N[C@@]2(CC[C@@H]3CN(Cc4ccc(Cl)cc4)C[C@@H]32)C(=O)N1 | -3.73 |
| COCC(=O)NCc1cc(=O)n2c(n1)CN(CC1CCOC1)CCC2 (centres undefined) | 15.2 |
| CN(C)CCO[C@@H]1CC[C@H]2[C@H]1OCCN2C(=O)COc1ccccc1 | -16.3 |
| O=C(Cc1ccccc1F)N1C[C@@H]2COC[C@]2(COc2cccnc2)C1 | -11.5 |
| CC1=N[C@@]2(CC[C@@H]3CNC[C@@H]32)C(=O)N1CC(C)C | 31.4 |
| Cc1ccc(CN2CC[C@H]3OCC[C@@H](C(=O)NC4CC4)[C@@H]3C2)o1 | 18.8 |
| CNC(=O)C1Cn2ccnc2C2(CCN(Cc3cccc(C)n3)CC2)O1 (centres undefined) | 0.339 |

| SMILES | cytotoxicity at 70.5 h [%] |
| --- | --- |
| Cc1nnc(N2CC[C@H]3C[C@H](C(=O)N4CCOCC4)O[C@H]3C2)s1 | -2.02 |
| O=C(Cc1ccc(F)cc1)N1CCn2cc(Cn3cccn3)nc2C1 | -1.99 |
| Cc1ccc(N2CC[C@H]3C[C@@H](C(=O)N4CCOCC4)O[C@H]3C2)nn1 | -0.412 |
| COCCN1CCC2(CC1)CN(C(=O)N(C)C)c1ccc(C)cc12 | 3.45 |
| O=S(=O)(c1cccs1)N1CC[C@H](O)[C@@H]1Cc1ccncc1 | -1.15 |
| CN(C)C(=O)[C@@H]1C[C@@H]2CCN(Cc3nccs3)C[C@@H]2O1 | -6.01 |
| Cc1noc([C@H]2C[C@H]3OCC[C@H]3N(Cc3ccc4c(c3)OCO4)C2)n1 | -11.8 |
| Cc1ccc(CC(=O)N2CC[C@@H]3CN(CCN(C)C)CCO[C@@H]3C2)cc1 | -8.7 |
| c1cc(CO[C@@H]2CC[C@H]3[C@H]2OCCN3CC2CCOCC2)ccn1 | 21.5 |
| COc1ccc(CN2C[C@@H](OCc3ccccn3)[C@H]3COC[C@H]32)cc1 | -23.2 |
| c1cc(CO[C@@H]2CC[C@H]3[C@H]2OCCN3Cc2ccoc2)ccn1 | -14.9 |
| c1cncc(N2CCCC3(CN(Cc4cccs4)CCO3)C2)c1 (centres undefined) | 9.99 |
| O=C(NCc1ccccn1)[C@@H]1COC[C@H]2CN(C3CCOCC3)C[C@H]21 | 2.68 |
| O=C(NCc1ccccn1)[C@@H]1CCO[C@@H]2CCN(Cc3ccoc3)C[C@H]21 | -1.45 |
| O=C(c1ccco1)N1C[C@@H]2OCCN(CCN3CCCC3)[C@@H]2C1 | -11.2 |
| c1cncc(N2CCOCC3(CCCN(Cc4cccs4)C3)C2)c1 (centres undefined) | 0.445 |
| Cc1cc(CN2C[C@@H]3COC[C@]3(CN(C)C)C2)no1 | -6.11 |
| Cc1ccc2c(c1)C1(CCNCC1)CN2C(=O)CN(C)C | 4.93 |
| COc1ccc(CN2CCn3cc(CN4CCN(C)CC4)nc3C2)cc1 | -7.16 |

Source: ChEMBL document CHEMBL3507680, “University of Dundee, Gates Library screen for HepG2 cell viability”
